Source: patent US9695155B2, “Herbicidal substituted pyrimidinyloxy benzene compounds” (E. I. DU PONT DE NEMOURS AND COMPANY, priority 2013, dated 2017)

How the values were obtained:
wild poinsettia = assay: Test E preemergence; format: in vivo, Euphorbia heterophylla; conditions: for Poinsettia, Wild plant response rating: scale 0 to 100 (0 no effect, 100 complete control); for Plant response rating, Poinsettia, Wild: scale 0 to 100, 0 no effect, 100 complete control
In short: (§1)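 Response was scored visually on a 0-100 scale (100 = complete control) versus controls after 14 to 21 days in the greenhouse. Test chemicals, formulated with surfactant in a non-phytotoxic solvent mixture, had been applied preemergence to seeds in silt loam soil or postemergence to 1- to 4-leaf plants in potting medium.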

hairy beggarticks = assay: Test E preemergence; format: in vivo, Bidens pilosa; conditions: for Beggarticks plant response rating: scale 0 to 100 (0 no effect, 100 complete control); for Plant response rating, Beggarticks: scale 0 to 100, 0 no effect, 100 complete control
In short: as §1

arrowleaf sida [1] = assay: Test E postemergence; format: in vivo, Sida rhombifolia
In short: as §1

giant foxtail = assay: Test E preemergence; format: in vivo, Setaria faberii; conditions: for Foxtail, Giant plant response rating: scale 0 to 100 (0 no effect, 100 complete control); for Plant response rating, Foxtail, Giant: scale 0 to 100, 0 no effect, 100 complete control
In short: as §1

barnyardgrass = assay: Test E preemergence; format: in vivo, Echinochloa crus-galli; conditions: for Barnyardgrass plant response rating: scale 0 to 100 (0 no effect, 100 complete control); for Plant response rating, Barnyardgrass: scale 0 to 100, 0 no effect, 100 complete control
In short: as §1

arrowleaf sida [2] = assay: Test E preemergence; format: in vivo, Sida rhombifolia; conditions: for Arrowleaf Sida plant response rating: scale 0 to 100 (0 no effect, 100 complete control); for Plant response rating, Arrowleaf Sida: scale 0 to 100, 0 no effect, 100 complete control
In short: as §1

goosegrass = assay: Test E preemergence; format: in vivo, Eleusine indica; conditions: for Goosegrass plant response rating: scale 0 to 100 (0 no effect, 100 complete control); for Plant response rating, Goosegrass: scale 0 to 100, 0 no effect, 100 complete control
In short: as §1

sandbur = assay: Test E preemergence; format: in vivo, Cenchrus echinatus; conditions: for Sandbur plant response rating: scale 0 to 100 (0 no effect, 100 complete control); for Plant response rating, Sandbur: scale 0 to 100, 0 no effect, 100 complete control
In short: as §1

surinam grass = assay: Test E preemergence; format: in vivo, Brachiaria decumbens; conditions: for Surinam Grass plant response rating: scale 0 to 100 (0 no effect, 100 complete control); for Plant response rating, Surinam Grass: scale 0 to 100, 0 no effect, 100 complete control
In short: as §1

nightshade = assay: Test E preemergence; format: in vivo, Solanum ptycanthum; conditions: for Nightshade plant response rating: scale 0 to 100 (0 no effect, 100 complete control); for Plant response rating, Nightshade: scale 0 to 100, 0 no effect, 100 complete control
In short: as §1

green foxtail = assay: Test E preemergence; format: in vivo, Setaria viridis; conditions: for Foxtail, Green plant response rating: scale 0 to 100 (0 no effect, 100 complete control); for Plant response rating, Foxtail, Green: scale 0 to 100, 0 no effect, 100 complete control
In short: as §1

[3] = Postemergence, 62 g ai/ha, scale 0 to 100
[4] = Postemergence, 125 g ai/ha, scale 0 to 100

N#Cc1cnn(-c2c(C#N)cccc2Oc2ncc(Cl)cn2)c1 [Compound 200]
Poinsettia, Wild plant response rating (wild poinsettia; 31 g ai/ha): 50
Poinsettia, Wild plant response rating (wild poinsettia; 62 g ai/ha): 50
Plant response rating, Poinsettia, Wild (wild poinsettia; 125 g ai/ha): 90
Plant response rating, Poinsettia, Wild (wild poinsettia; 250 g ai/ha): 95
Beggarticks plant response rating (hairy beggarticks; 16 g ai/ha, preemergence): 0
Beggarticks plant response rating (hairy beggarticks; 31 g ai/ha, preemergence): 10
Beggarticks plant response rating (hairy beggarticks; 62 g ai/ha, preemergence): 35
Plant response rating, Beggarticks (hairy beggarticks; preemergence, 125 g ai/ha): 75
Plant response rating, Beggarticks (hairy beggarticks; preemergence, 250 g ai/ha): 95
Plant response rating, Arrowleaf Sida (arrowleaf sida [1]; Postemergence, 31 g ai/ha, scale 0 to 100): 80
Plant response rating, Arrowleaf Sida (arrowleaf sida [1]; [3]): 80
Plant response rating, Arrowleaf Sida (arrowleaf sida [1]; [4]): 90
Plant response rating, Arrowleaf Sida (arrowleaf sida [1]; Postemergence, 250 g ai/ha, scale 0 to 100): 98
Plant response rating, Arrowleaf Sida (arrowleaf sida [1]; postemergence, 16 g ai/ha, scale 0 to 100, 0 no effect, 100 complete control): 60
Foxtail, Giant plant response rating (giant foxtail; 16 g ai/ha): 0
Foxtail, Giant plant response rating (giant foxtail; 31 g ai/ha): 0
Foxtail, Giant plant response rating (giant foxtail; 62 g ai/ha): 0
Plant response rating, Foxtail, Giant (giant foxtail; 125 g ai/ha): 25
Plant response rating, Foxtail, Giant (giant foxtail; 250 g ai/ha): 70
Barnyardgrass plant response rating (barnyardgrass; 16 g ai/ha, preemergence): 0
Barnyardgrass plant response rating (barnyardgrass; 31 g ai/ha, preemergence): 0
Barnyardgrass plant response rating (barnyardgrass; 62 g ai/ha, preemergence): 10
Plant response rating, Barnyardgrass (barnyardgrass; preemergence, 125 g ai/ha): 60
Plant response rating, Barnyardgrass (barnyardgrass; preemergence, 250 g ai/ha): 95
Arrowleaf Sida plant response rating (arrowleaf sida [2]; 16 g ai/ha, preemergence): 20
Arrowleaf Sida plant response rating (arrowleaf sida [2]; 31 g ai/ha, preemergence): 20
Arrowleaf Sida plant response rating (arrowleaf sida [2]; 62 g ai/ha, preemergence): 70
Plant response rating, Arrowleaf Sida (arrowleaf sida [2]; preemergence, 125 g ai/ha): 100
Plant response rating, Arrowleaf Sida (arrowleaf sida [2]; preemergence, 250 g ai/ha): 100
Goosegrass plant response rating (goosegrass; 31 g ai/ha): 5
Goosegrass plant response rating (goosegrass; 62 g ai/ha): 60
Plant response rating, Goosegrass (goosegrass; 125 g ai/ha): 80
Plant response rating, Goosegrass (goosegrass; 250 g ai/ha): 90
Sandbur plant response rating (sandbur; 31 g ai/ha): 0
Sandbur plant response rating (sandbur; 62 g ai/ha): 5
Plant response rating, Sandbur (sandbur; 125 g ai/ha): 40
Plant response rating, Sandbur (sandbur; 250 g ai/ha): 70
Surinam Grass plant response rating (surinam grass; 31 g ai/ha): 5
Surinam Grass plant response rating (surinam grass; 62 g ai/ha): 70
Plant response rating, Surinam Grass (surinam grass; 125 g ai/ha): 100
Plant response rating, Surinam Grass (surinam grass; 250 g ai/ha): 100
Nightshade plant response rating (nightshade; 31 g ai/ha): 10
Nightshade plant response rating (nightshade; 62 g ai/ha): 85
Plant response rating, Nightshade (nightshade; 125 g ai/ha): 100
Plant response rating, Nightshade (nightshade; 250 g ai/ha): 100
Foxtail, Green plant response rating (green foxtail; 16 g ai/ha): 0
Foxtail, Green plant response rating (green foxtail; 31 g ai/ha): 5
Foxtail, Green plant response rating (green foxtail; 62 g ai/ha): 30
Plant response rating, Foxtail, Green (green foxtail; 125 g ai/ha): 75
Plant response rating, Foxtail, Green (green foxtail; 250 g ai/ha): 100

N#Cc1cccc(Oc2ncc(Cl)cn2)c1-n1cc(Cl)cn1 [Compound 72]
Poinsettia, Wild plant response rating (wild poinsettia; 16 g ai/ha): 15
Poinsettia, Wild plant response rating (wild poinsettia; 31 g ai/ha): 5
Poinsettia, Wild plant response rating (wild poinsettia; 62 g ai/ha): 15
Plant response rating, Poinsettia, Wild (wild poinsettia; 125 g ai/ha): 70
Plant response rating, Poinsettia, Wild (wild poinsettia; 250 g ai/ha): 70
Beggarticks plant response rating (hairy beggarticks; 16 g ai/ha, preemergence): 0
Beggarticks plant response rating (hairy beggarticks; 31 g ai/ha, preemergence): 0
Plant response rating, Beggarticks (hairy beggarticks; Preemergence, 62 g ai/ha): 5
Plant response rating, Beggarticks (hairy beggarticks; preemergence, 125 g ai/ha): 5
Plant response rating, Beggarticks (hairy beggarticks; preemergence, 250 g ai/ha): 30
Plant response rating, Arrowleaf Sida (arrowleaf sida [1]; [3]): 50
Plant response rating, Arrowleaf Sida (arrowleaf sida [1]; [4]): 75
Foxtail, Giant plant response rating (giant foxtail; 16 g ai/ha): 35
Foxtail, Giant plant response rating (giant foxtail; 31 g ai/ha): 35
Foxtail, Giant plant response rating (giant foxtail; 62 g ai/ha): 95
Plant response rating, Foxtail, Giant (giant foxtail; 125 g ai/ha): 98
Plant response rating, Foxtail, Giant (giant foxtail; 250 g ai/ha): 100
Barnyardgrass plant response rating (barnyardgrass; 16 g ai/ha, preemergence): 0
Barnyardgrass plant response rating (barnyardgrass; 31 g ai/ha, preemergence): 0
Plant response rating, Barnyardgrass (barnyardgrass; Preemergence, 62 g ai/ha): 15
Plant response rating, Barnyardgrass (barnyardgrass; preemergence, 125 g ai/ha): 35
Plant response rating, Barnyardgrass (barnyardgrass; preemergence, 250 g ai/ha): 90
Arrowleaf Sida plant response rating (arrowleaf sida [2]; 16 g ai/ha, preemergence): 20
Arrowleaf Sida plant response rating (arrowleaf sida [2]; 31 g ai/ha, preemergence): 40
Plant response rating, Arrowleaf Sida (arrowleaf sida [2]; Preemergence, 62 g ai/ha): 40
Plant response rating, Arrowleaf Sida (arrowleaf sida [2]; preemergence, 125 g ai/ha): 100
Plant response rating, Arrowleaf Sida (arrowleaf sida [2]; preemergence, 250 g ai/ha): 100
Goosegrass plant response rating (goosegrass; 16 g ai/ha): 0
Goosegrass plant response rating (goosegrass; 31 g ai/ha): 60
Goosegrass plant response rating (goosegrass; 62 g ai/ha): 80
Plant response rating, Goosegrass (goosegrass; 125 g ai/ha): 98
Plant response rating, Goosegrass (goosegrass; 250 g ai/ha): 100
Sandbur plant response rating (sandbur; 16 g ai/ha): 25
Sandbur plant response rating (sandbur; 31 g ai/ha): 40
Sandbur plant response rating (sandbur; 62 g ai/ha): 30
Plant response rating, Sandbur (sandbur; 125 g ai/ha): 35
Plant response rating, Sandbur (sandbur; 250 g ai/ha): 50
Surinam Grass plant response rating (surinam grass; 16 g ai/ha): 20
Surinam Grass plant response rating (surinam grass; 31 g ai/ha): 20
Surinam Grass plant response rating (surinam grass; 62 g ai/ha): 20
Plant response rating, Surinam Grass (surinam grass; 125 g ai/ha): 10
Plant response rating, Surinam Grass (surinam grass; 250 g ai/ha): 30
Nightshade plant response rating (nightshade; 16 g ai/ha): 0
Nightshade plant response rating (nightshade; 31 g ai/ha): 65
Nightshade plant response rating (nightshade; 62 g ai/ha): 100
Plant response rating, Nightshade (nightshade; 125 g ai/ha): 98
Plant response rating, Nightshade (nightshade; 250 g ai/ha): 100
Foxtail, Green plant response rating (green foxtail; 16 g ai/ha): 30
Foxtail, Green plant response rating (green foxtail; 31 g ai/ha): 30
Foxtail, Green plant response rating (green foxtail; 62 g ai/ha): 95
Plant response rating, Foxtail, Green (green foxtail; 125 g ai/ha): 100
Plant response rating, Foxtail, Green (green foxtail; 250 g ai/ha): 100
